Data set [1] relates to bovine aortic endothelial cell. The data set is described as follows: bovine aortic endothelial cell growth assay (Baec assay). It is filed as cell-based. The method, then: (§1) The angiogenesis inhibitor compounds of the invention were tested for their ability to modulate human endothelial cell growth and for their ability to modulate the activity of MetAP2. The MetAP2 enzyme assay was performed essentially as described in Turk, B. et al. (1999) Chem. & Bio. 6: 823-833, the entire contents of which are incorporated herein by reference. The bovine aortic endothelial cell growth assay (Baec assay) was performed essentially as described in Turk, B. et al. (supra), the entire contents of which are incorporated herein by reference.

For a further data set, the target named is T1, MetAP2 (Homo sapiens, UniProt P50579).
T1 construct: made in house; host or cells: insect cells
T1 sequence (P50579 whole entry): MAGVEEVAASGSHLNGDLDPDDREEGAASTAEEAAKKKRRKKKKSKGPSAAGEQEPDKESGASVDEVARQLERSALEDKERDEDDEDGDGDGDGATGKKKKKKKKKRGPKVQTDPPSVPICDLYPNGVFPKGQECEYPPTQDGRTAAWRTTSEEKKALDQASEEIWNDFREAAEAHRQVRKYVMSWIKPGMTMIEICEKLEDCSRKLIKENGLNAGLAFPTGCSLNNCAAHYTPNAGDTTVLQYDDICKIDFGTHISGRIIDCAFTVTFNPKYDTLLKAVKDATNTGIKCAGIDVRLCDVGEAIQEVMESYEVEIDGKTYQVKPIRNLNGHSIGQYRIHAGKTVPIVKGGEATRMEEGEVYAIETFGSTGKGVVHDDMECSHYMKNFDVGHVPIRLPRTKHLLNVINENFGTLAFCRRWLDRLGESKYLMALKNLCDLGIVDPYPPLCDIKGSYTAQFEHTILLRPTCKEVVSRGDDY
The data set is described as follows: MetAP2 enzyme assay. It is filed as biochemical. The method, then:
Finally, the ability of the angiogenesis inhibitor compounds of the invention to modulate the activity of MetAP2 may be tested as follows. Recombinant human MetAP2 may be expressed and purified from insect cells as described in Li and Chang, (1996) Biochem. Biophys. Res. Commun. 227:152-159. Various amounts of angiogenesis inhibitor compound is then added to buffer H (10 mM Hepes, pH 7.35, 100 mM KCl, 10% glycerol, and […]) containing 1 nM purified recombinant human MetAP2 and incubated at 37° C. for 30 minutes. To start the enzymatic reaction a peptide containing a methionine residue, e.g., Met-Gly-Met, is added to the reaction mixture (to a concentration of 1 mM). Released methionine is subsequently quantified at different time points (e.g., at 0, 2, 3, and 5 minutes) using the method of Zou et al. (1995) Mol. Gen Genetics 246:247-253).
as §1

The subject of data set [2] is human umbilical vein endothelial cells (HUVEC). The data set is described as follows: human endothelial cell growth assay (Huvec assay). It is filed as cell-based. On the procedure: For the human endothelial cell growth assay, human umbilical vein endothelial cells (HUVEC) were maintained in Clonetics endothelial growth medium (EGM) in a 37° C. humidified incubator. Cells were detached with trypsin and pelleted by centrifugation at 300×g for 5 minutes at room temperature. HUVEC were added to 96-well plates at 5,000 cells/well. After incubating for 6 hours, the medium was replaced with 0.2 ml fresh EGM supplemented with 0.5 nM bFGF and the desired concentration of test angiogenesis inhibitor compound. Test angiogenesis inhibitor compounds were initially dissolved in ethanol at stock concentrations of either 10 mM or 0.1 mM, and subsequently diluted in EGM to obtain concentrations from […] to 10 μM. After 48 hours at 37° C., the medium was replaced with fresh bFGF-supplemented EGM and test angiogenesis inhibitor compound. Following incubation for an additional 48 hours at 37° C. MTT (3-[4,5-dimethylthiazol-2-yl]-2,5-diphenyl-tetrazolium bromide) was added to 1 mg/ml. After 2-4 hours at 37° C. the medium was replaced with 0.1 ml/well isopropanol. The plates were placed on a shaker for 15 minutes at room temperature and analyzed in a Labsystems Multiskan plate spectrophotometer at an optical density of 570 nm.

A short description of data set [3]: stability in liver microsomes. It is filed as in vitro ADME, rat. Particulars: NADPH regenerating system. On the procedure:
The stability of the angiogenesis inhibitor compounds in liver microsomes was also tested. The test angiogenesis inhibitor compound at a concentration of 3 μM was incubated with male rat liver microsomes (0.5 mg/mL protein) in the presence of a NADPH regenerating system (1 mM NADP, 10 mM G6P, 1 U/mL G6PdH2, 3 mM MgCl2 ) in 100 mM Phosphate buffer at pH 7.4 at 37° C. Incubations were performed in the presence and absence of 1 μM epoxide hydrolase (EH) inhibitor N-cyclohexyl-N′-(3-phenylpropyl)urea (M. Morisseau et al. (1999) PNAS 96:8849-54) and quantitative analysis performed using LC/MS/MS.
The parent compound remaining (relative to time 0) in the incubation mixture was plotted as a function of time; a first order exponential equation was fit to the observed data, and the elimination half-lives associated with the disappearance of the test compound were determined.
Background: Microsomes from liver hold many membrane-bound enzymes, among them those of drug oxidation.

Data set [4] is described as follows: plasma stability in human plasma. It is filed as in vitro ADME. Particulars: human plasma, 37° C., 20 μM. On the procedure: The plasma stability of the angiogenesis inhibitor compounds of the invention was also tested in human plasma at 37° C. (at a 20 μM concentration of the angiogenesis inhibitor compound). The matrix minus the test angiogenesis inhibitor compound was equilibrated at 37° C. for 3 minutes. The assay was initiated by addition of the test compound, and the reaction mixture was incubated in a shaking water bath at 37° C. […] The supernatant was analysed by Liquid Chromatography/Mass spectrometry (LC/MS) using a four point standard curve to obtain percent recovery.
The parent compound remaining (relative to time 0) in the incubation mixture was plotted as a function of time; a first order exponential equation was fit to the observed data, and the elimination half-lives associated with the disappearance of the test angiogenesis inhibitor compound were determined.

The mark [5] stands for this setting: Homo sapiens, HUVEC, bFGF-supplemented EGM, MTT.

Where two headings read alike, the source gives them in different places. Square brackets hold non-standard residues; d marks the D form. Peptide text beside a SMILES is read from it. * marks the point of attachment. ξ: configuration not given here. X1 = CO[C@H]1C([C@@]2(C)O[C@@H]2CC=C(C)C)[C@]2(CC[C@H]1OC(=O)N[C@@H](CO*)C(C)C)CO2; X2 = CO[C@@H]1[C@H](OC(=O)*)CC[C@]2(CO2)[C@H]1[C@@]1(C)O[C@@H]1CC=C(C)C; X3 = CO[C@@H]1[C@H](OC(=O)*)CC[C@]2(CO2)[C@H]1[C@@]1(C)O[C@@H]1CCC(C)C; ξP = O=C(O)C1CCCN1

The values below come from patent US20050130903A1, “Therapeutic agents and methods of use thereof for the modulation of angiogenesis” (priority 2000, published 2005).

On to `CO[C@@H]1[C@H](OC(=O)N[C@@H](COC(=O)CNC(=O)[C@@H](N)CCSC)C(C)C)CC[C@]2(CO2)[C@H]1[C@@]1(C)O[C@@H]1CC=C(C)C` [Example 23, (ID#38)-(2R-{(3R,4S,5S,6R) 5-methoxy-4-[(2R,3R)2-methyl-3-(3-methyl-but-2-enyl)-oxiranyl]-1-oxa-spiro[2.5]oct-6-yloxycarbonyl}amino-3-methyl-butanol)ester], for which, in data set [1], the IC50 – broadly, the midpoint of a concentration-inhibition curve – amounted to 0.207 nM.

Consider `COC(=O)[C@@H](CC(C)C)NC(=O)O[C@@H]1CC[C@]2(CO2)[C@@H]([C@@]2(C)O[C@@H]2CC=C(C)C)[C@@H]1OC` [Example 3, 2-{(3R,4S,5S,6R)-5-Methoxy-4-[(2R,3R)-2-methyl-3-(3-methyl-but-2-enyl)-oxiranyl]-1-oxa-spiro[2.5]oct-6-yloxycarbonylamino}-4-methyl-pentanoic acid methyl ester], for which the half-inhibitory concentration (IC50) on MetAP2 (read-out: MetAP2 Assay IC50) is 5.5 nM; in data set [2] (setting [5]) it was 0.038 nM; in data set [1] (Bos taurus, BAEC) it was 0.118 nM.

As for `CO[C@@H]1[C@H](OC(=O)NCC(=O)N2CCCC2C(=O)N[C@@H](CC(C)C)C(=O)NCC(=O)N[C@@H](CCSC)C(=O)N[C@@H](Cc2c[nH]c3ccccc23)C(=O)N[C@@H](C)C(=O)NCC(N)=O)CC[C@]2(CO2)[C@H]1[C@@]1(C)O[C@@H]1CC=C(C)C` (some centres unmarked) [Example 17] (X2-G[ξP]LGMWAG-NH2), the 50% inhibitory concentration (IC50) came out at 16.7 nM at MetAP2 and 95 nM in data set [2].

Regarding `COc1ccc(C[C@H](NC(=O)[C@H](CC(=O)O)NC(=O)CNC(=O)[C@H](CCCNC(=N)N)NC(=O)CNC(=O)O[C@@H]2CC[C@]3(CO3)[C@@H]([C@@]3(C)O[C@@H]3CCC(C)C)[C@@H]2OC)C(=O)N[C@@H](CCCNC(=N)N)C(=O)N[C@@H](CCC(=O)O)C(N)=O)cc1` [Example 14] (X3-GRGDY(Me)RE-NH2), the 50% inhibitory concentration (IC50) at MetAP2 was 4000 nM; in data set [2] it was above 10000 nM.

Consider `CO[C@@H]1[C@H](OC(=O)NC(=O)CCl)CC[C@]2(CO2)[C@H]1[C@@]1(C)O[C@@H]1CC=C(C)C` [TNP-470, reference compound], for which, in data set [3] (male rat liver microsomes 0.5 mg/mL, 3 μM, with 1 μM EH inhibitor), the “T1/2 (with EH inhibitor)” value is above 1.0 min. Moreover, the half-life at 3 μM in data set [3] (pH 7.4, male rat liver microsomes 0.5 mg/mL, without EH inhibitor, read-out: T1/2 (without EH inhibitor)) was above 1 min.

Regarding `COC(=O)[C@H](NC(=O)O[C@@H]1CC[C@]2(CO2)[C@@H]([C@@]2(C)O[C@@H]2CC=C(C)C)[C@@H]1OC)c1ccccc1` [Example 4, {(3R,4S,5S,6R)-5-Methoxy-4-[(2R,3R)-2-methyl-3-(3-methyl-but-2-enyl)-oxiranyl]-1-oxa-spiro[2.5]oct-6-yloxycarbonylamino}-phenyl-acetic acid methyl ester], at MetAP2 (read-out: MetAP2 Assay IC50), the 50% inhibitory concentration (IC50) was determined as 2.7 nM.

As to `COC(=O)[C@@H](NC(=O)O[C@@H]1CC[C@]2(CO2)[C@@H]([C@@]2(C)O[C@@H]2CC=C(C)C)[C@@H]1OC)C(C)C` [Example 1, 2-{(3R,4S,5S,6R)-5-Methoxy-4-[(2R,3R)-2-methyl-3-(3-methyl-but-2-enyl)-oxiranyl]-1-oxa-spiro[2.5]oct-6-yloxycarbonylamino}-3-methyl-butyric acid methyl ester], the IC50 came out at 4.7 nM on MetAP2 (read-out: MetAP2 Assay IC50); 0.018 nM in data set [2] (setting [5]); 0.017 nM in data set [1] (Bos taurus, BAEC).

Regarding `CO[C@H]1C([C@@]2(C)O[C@@H]2CC=C(C)C)[C@]2(CC[C@H]1OC(=O)N[C@@H](COC(=O)[C@H](C)NC(=O)[C@H](Cc1c[nH]c3ccccc13)NC(=O)[C@H](CCSC)NC(=O)CNC(=O)[C@H](CC(C)C)NC(=O)[C@@H]1CCCN1C(C)=O)C(C)C)CO2` (stereo partly drawn) [Example 20, (ID#24)-(2R-{(3R,4S,5S,6R) 5-methoxy-4-[(2R,3R)2-methyl-3-(3-methyl-but-2-enyl)-oxiranyl]-1-oxa-spiro[2.5]oct-6-yloxycarbonyl}amino-3-methyl-butanol)ester] (Ac-PLGMWA-X1), the recovery at 0 min, 20 μM in data set [4] (0 min, read-out: Percent Recovery (Remaining) 0 min) was found to be 110%. Moreover, the recovery at 15 min, 20 μM in data set [4] (15 min, read-out: Percent Recovery (Remaining) 15 min) turned out to be 114%. Further, the recovery at 30 min, 20 μM in data set [4] (30 min, read-out: Percent Recovery (Remaining) 30 min) was found to be 114%. The recovery at 60 min, 20 μM in data set [4] (60 min, read-out: Percent Recovery (Remaining) 60 min) was 120%. Also, the recovery at 90 min, 20 μM in data set [4] (90 min, read-out: Percent Recovery (Remaining) 90 min) stood at 106%. Besides, the recovery at 120 min, 20 μM in data set [4] (120 min, read-out: Percent Recovery (Remaining) 120 min) turned out to be 103%. In data set [4] (first order fit, read-out: T1/2), the half-life at 20 μM is at least 500 min.

In data set [1], `CO[C@@H]1[C@H](OC(=O)N[C@@H](COC(=O)[C@H](C)NC(=O)[C@H](Cc2c[nH]c3ccccc23)NC(=O)[C@@H](N)CCSC)C(C)C)CC[C@]2(CO2)[C@H]1[C@@]1(C)O[C@@H]1CC=C(C)C` [Example 22, (ID#37)-(2R-{(3R,4S,5S,6R) 5-methoxy-4-[(2R,3R)2-methyl-3-(3-methyl-but-2-enyl)-oxiranyl]-1-oxa-spiro[2.5]oct-6-yloxycarbonyl}amino-3-methyl-butanol)ester] returned an IC50 of 0.326 nM.

`COC(=O)[C@H](NC(=O)O[C@@H]1CC[C@]2(CO2)[C@@H]([C@@]2(C)O[C@@H]2CC=C(C)C)[C@@H]1OC)C(C)C` [Example 2, 2-{(3R,4S,5S,6R)-5-Methoxy-4-[(2R,3R)-2-methyl-3-(3-methyl-but-2-enyl)-oxiranyl]-1-oxa-spiro[2.5]oct-6-yloxycarbonylamino}-3-methyl-butyric acid methyl ester]: the IC50 turned out to be 2 nM at MetAP2 (read-out: MetAP2 Assay IC50); 0.04 nM in data set [2] (setting [5]); 0.048 nM in data set [1] (Bos taurus, BAEC).

For `CO[C@@H]1[C@H](OC(=O)NCC(=O)N[C@@H](CCCNC(=N)N)C(=O)NCC(=O)N[C@@H](CC(=O)O)c2cccnc2)CC[C@]2(CO2)[C@H]1[C@@]1(C)O[C@@H]1CC=C(C)C` [Example 16, N-Carbamoyl (ID#40) (3R,4S,5S,6R) 5-methoxy-4-[(2R,3R)2-methyl-3-(3-methyl-but-2-enyl)-oxiranyl]-1-oxa-spiro[2.5]oct-6-yl ester], in data set [1], the half-inhibitory concentration (IC50) is above 100 nM.
